Consider 33 compounds from patent publication US8871756B2 (Hoffmann-La Roche Inc., priority 2011, dated 2014).

The subject of this assay is RSV Long strain. Kind of assay: Viral cytopathic effect (CPE) assay, anti-RSV activity. It is filed as cell-based, Respiratory Syncytial Virus. The conditions noted are these: human respiratory syncytial virus, 144 h, RSV Long strain (ATCC); cell viability after 6 days, Cell Counting kit-8. The method in brief:
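Cells (6×10^3/well, DMEM with 10% FBS) were infected next day with RSV Long strain, at a dose giving approximately 80–90% CPE, alongside serial half-log compound dilutions. Viability was read after 6 days by CCK-8 absorbance at 450 nm (reference 630 nm), and EC50 was derived from it.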
On the technique in general: Cytopathic effects are the visible damage that an infection or toxin causes in cultured cells.
With `Cc1ccc2nc(N3CCC(F)(F)c4ccccc4C3)cc(N3CCN(C)CC3)c2c1` [Example 110-13, 5,5-Difluoro-2-[6-methyl-4-(4-methylpiperazin-1-yl)quinolin-2-yl]-2,3,4,5-tetrahydro-1H-2-benzazepine], the concentration giving a half-maximal response (EC50) – broadly, the concentration at which the effect is half-maximal – is 3.68 µM.
`C[S+]([O-])c1ccc2nc(N3CCS(=O)(=O)c4ccccc4C3)cc(NCCCN)c2c1` (stereo not drawn) [Example 80, N-[2-(1,1-Dioxido-2,3-dihydro-1,4-benzothiazepin-4(5H)-yl)-6-(methylsulfinyl)quinolin-4-yl]propane-1,3-diamine]: the EC50 is 5.48 µM.
Turning to `Cc1ccc2nc(N3CCS(=O)(=O)c4ccccc4C3)cc(NCCNCC(F)F)c2c1` [Example 5-11, N-(2,2-Difluoroethyl)-N′-[2-(1,1-dioxido-2,3-dihydro-1,4-benzothiazepin-4(5H)-yl)-6-methylquinolin-4-yl]ethane-1,2-diamine], it took 0.526 µM to reach a half-maximal effect (EC50).
Compound `Cc1ccc2nc(N3CCS(=O)(=O)c4ccccc4C3)cc(NCCCN)c2c1` [Example 9-3, N-[2-(1,1-Dioxido-2,3-dihydro-1,4-benzothiazepin-4(5H)-yl)-6-methylquinolin-4-yl]propane-1,3-diamine] showed an EC50 of 0.001 µM.
As for `Cc1ccc2nc(N3CCS(=O)(=O)c4ccccc4C3)cc(N3CCC(C)(N)C3)c2c1` (stereo not drawn) [Example 64, 1-[2-(1,1-Dioxido-2,3-dihydro-1,4-benzothiazepin-4(5H)-yl)-6-methylquinolin-4-yl]-3-methylpyrrolidin-3-amine], the EC50 is 0.035 µM.
The compound `NC1CCN(c2cc(N3CCS(=O)(=O)c4ccccc4C3)nc3ccncc23)C1` (stereo not drawn) [Example 9-28, 1-[2-(1,1-Dioxido-2,3-dihydro-1,4-benzothiazepin-4(5H)-yl)-1,6-naphthyridin-4-yl]pyrrolidin-3-amine] displayed an EC50 of 0.003 µM.
`Cc1ccc2nc(N3CCS(=O)(=O)c4ccccc4C3)cc(N3CC(N)C4(COC4)C3)c2c1` (stereo not drawn) [Example 23, 6-[2-(1,1-Dioxido-2,3-dihydro-1,4-benzothiazepin-4(5 H)-yl)-6-methylquinolin-4-yl]-2-oxa-6-azaspiro[3.4]octan-8-amine] registered an EC50 of 5.19 µM.
As to `NCCNc1cc(N2CCCc3ccc(F)cc3C2)nc2ccccc12` [Example 118-7, N-[2-(8-Fluoro-1,3,4,5-tetrahydro-2H-2-benzazepin-2-yl)quinolin-4-yl]ethane-1,2-diamine], the EC50 came out at 0.166 µM. This EC50 is about 31-fold lower than that of the compound before.
Compound `COCCOc1ccc2nc(N3CCS(=O)(=O)c4ccccc4C3)cc(NCCCN)c2c1` [Example 30-2, N-[2-(1,1-Dioxido-2,3-dihydro-1,4-benzothiazepin-4(5H)-yl)-6-(2-methoxyethoxy)quinolin-4-yl]propane-1,3-diamine] came in with an EC50 of 0.218 µM.
In the case of `O=S1(=O)CCN(c2cc(NC3CNC3)c3cc(Cl)ccc3n2)Cc2ccccc21` [Example 22, N-(Azetidin-3-yl)-6-chloro-2-(1,1-dioxido-2,3-dihydro-1,4-benzothiazepin-4(5H)-yl)quinolin-4-amine], the response was half-maximal at 0.036 µM (EC50).
Turning to `Cc1ccc2nc(N3CCC(F)(F)c4ccccc4C3)nc(NCC(CN)(CO)CO)c2c1` [Example 114-4, 2-(Aminomethyl)-2-({[2-(5,5-difluoro-1,3,4,5-tetrahydro-2H-2-benzazepin-2-yl)-6-methylquinazolin-4-yl]amino}methyl)propane-1,3-diol], the EC50 was 0.186 µM.
As to `Cc1ccc2nc(N3CCS(=O)(=O)c4ccccc4C3)cc(NCCCCCCCCN)c2c1` [Example 12-5, N-[2-(1,1-Dioxido-2,3-dihydro-1,4-benzothiazepin-4(5H)-yl)-6-methylquinolin-4-yl]octane-1,8-diamine], a half-maximal response (EC50) required 0.448 µM.
Take `COc1ccc2c(c1)CN(c1cc(NCC3(N)COC3)c3ccccc3n1)CCS2(=O)=O` [Example 1-7, N-[(3-Aminooxetan-3-yl)methyl]-2-(7-methoxy-1,1-dioxido-2,3-dihydro-1,4-benzothiazepin-4(5H)-yl)-quinolin-4-amine]: a half-maximal response (EC50) required 0.022 µM.
As for `Cc1ccc2nc(N3CCS(=O)(=O)c4ccccc4C3)cc(NC3CNCC3F)c2c1` (stereo not drawn) [Example 28-1, 2-(1,1-Dioxido-2,3-dihydro-1,4-benzothiazepin-4(5H)-yl)-N-trans-(4-fluoropyrrolidin-3-yl)-6-methylquinolin-4-amine], the figure is 0.007 µM.
With `CCNc1cc(N2CCS(=O)(=O)c3ccccc3C2)nc2ccc(Cl)cc12` [Example 9-30, 6-Chloro-2-(1,1-dioxido-2,3-dihydro-1,4-benzothiazepin-4(5H)-yl)-N-ethylquinolin-4-amine], the EC50 came to 8.59 µM.
Take `Cc1ccc2nc(N3CCC(F)(F)c4ccccc4C3)cc(NCCN(C)C)c2c1` [Example 111-8, N′-[2-(5,5-Difluoro-1,3,4,5-tetrahydro-2H-2-benzazepin-2-yl)-6-methylquinolin-4-yl]-N,N-dimethylethane-1,2-diamine]: the EC50 stood at 0.283 µM.
As for `Cc1ccc2nc(N3CCS(=O)(=O)c4ccccc4C3)cc(NC(C)CN)c2c1` (stereo not drawn) [Example 9-18, N^˜2^˜-[2-(1,1-Dioxido-2,3-dihydro-1,4-benzothiazepin-4(5H)-yl)-6-methylquinolin-4-yl]propane-1,2-diamine], the EC50 amounted to 0.01 µM.
As for `Cc1ccc2nc(N3CCS(=O)(=O)c4ccccc4C3)cc(NC3CNC3)c2c1` [Example 26-1, N-(Azetidin-3-yl)-2-(1,1-dioxido-2,3-dihydro-1,4-benzothiazepin-4(5H)-yl)-6-methylquinolin-4-amine], the figure is 0.005 µM; as for `NCCNc1cc(N2CCCc3ccc(C(=O)O)cc3C2)nc2ccccc12` [Example 118-25, 2-{4-[(2-Aminoethyl)amino]quinolin-2-yl}-2,3,4,5-tetrahydro-1H-2-benzazepine-8-carboxylic acid], 7.62 µM; as for `NCCNc1cc(N2CCCc3cccc(F)c3C2)nc2ccc(Cl)cc12` [Example 118-6, N-[6-Chloro-2-(9-fluoro-1,3,4,5-tetrahydro-2H-2-benzazepin-2-yl)quinolin-4-yl]ethane-1,2-diamine], 0.173 µM.
As for `CN(C)C(=O)c1ccc2c(c1)CCCN(c1cc(NCCN)c3cc(Cl)ccc3n1)C2` [Example 123, 2-{4-[(2-Aminoethyl)amino]-6-chloroquinolin-2-yl}-N,N-dimethyl-2,3,4,5-tetrahydro-1H-2-benzazepine-7-carboxamide], the figure is 3.14 µM; as for `Cc1ccc2nc(N3CCS(=O)(=O)c4ccccc4C3)cc(NC3COC3)c2c1` [Example 3-47, 2-(1,1-Dioxido-2,3-dihydro-1,4-benzothiazepin-4(5H)-yl)-6-methyl-N-(oxetan-3-yl)quinolin-4-amine], 0.101 µM.
As for `Cc1ccc2nc(N3CCS(=O)(=O)c4ccccc4C3)cc(NCC(C)N)c2c1` (stereo not drawn) [Example 5-5, N˜1˜-[2-(1,1-Dioxido-2,3-dihydro-1,4-benzothiazepin-4(5H)-yl)-6-methylquinolin-4-yl]propane-1,2-diamine], a half-maximal response (EC50) required 0.014 µM.
As for `Cc1ccc2nc(N3CCS(=O)(=O)c4ccccc4C3)cc(NC3CCCNC3)c2c1` (stereo not drawn) [Example 3-40, 2-(1,1-Dioxido-2,3-dihydro-1,4-benzothiazepin-4(5H)-yl)-6-methyl-N-(piperidin-3-yl)quinolin-4-amine], the figure is 0.022 µM.
On to `Cc1ccc2nc(N3CCS(=O)(=O)c4ccccc4C3)cc(N3C[C@@H](O)[C@H](N4CCN(C)CC4)C3)c2c1` [Example 8-6, (3R,4R)-1-[2-(1,1-Dioxido-2,3-dihydro-1,4-benzothiazepin-4(5H)-yl)-6-methylquinolin-4-yl]-4-(4-methylpiperazin-1-yl)pyrrolidin-3-ol], for which a half-maximal response (EC50) required 3.77 µM.
Take `NCCCNc1cc(N2CCS(=O)(=O)c3ccccc3C2)nc2cc(Cl)ccc12` [Example 9-11, N-[7-Chloro-2-(1,1-dioxido-2,3-dihydro-1,4-benzothiazepin-4(5H)-yl)quinolin-4-yl]propane-1,3-diamine]: the EC50 is 0.953 µM.
`Cc1ccc2nc(N3CCC(F)(F)c4ccccc4C3)cc(NCC(O)CN)c2c1` (stereo not drawn) [Example 110-4, 1-Amino-3-{[2-(5,5-difluoro-1,3,4,5-tetrahydro-2H-2-benzazepin-2-yl)-6-methylquinolin-4-yl]amino}propan-2-ol] yielded an EC50 of 0.06 µM.
On to `Cc1ccc2nc(N3CCS(=O)(=O)c4ccccc4C3)cc(NCC3(N)CCC3)c2c1` [Example 3-54, N-[(1-Aminocyclobutyl)methyl]-2-(1,1-dioxido-2,3-dihydro-1,4-benzothiazepin-4(5H)-yl)-6-methylquinolin-4-amine], for which the EC50 is 0.114 µM.
As for `Cc1ccc2nc(N3CCS(=O)(=O)c4ccccc4C3)cc(NC[C@@H]3COC(N)=N3)c2c1` [Example 38-3, N-{[(4R)-2-Amino-4,5-dihydro-1,3-oxazol-4-yl]methyl}-2-(1,1-dioxido-2,3-dihydro-1,4-benzothiazepin-4(5H)-yl)-6-methylquinolin-4-amine], the EC50 was found to be 0.074 µM.
Turning to `N[C@@H]1CN(c2cc(N3CC[S+]([O-])c4ccccc4C3)nc3ccc(Cl)cc23)C[C@H]1F` (relative stereo) [Example 19-7, trans-1-[6-Chloro-2-(1-oxido-2,3-dihydro-1,4-benzothiazepin-4(5H)-yl)quinolin-4-yl]-4-fluoropyrrolidin-3-amine], a half-maximal effect (EC50) was put at 6.86 µM. Against the preceding compound, the EC50 is about 93-fold higher.
As for `Cc1ccc2nc(N3CCS(=O)(=O)c4ccccc4C3)cc(NC(=O)N(C)C)c2c1` [Example 3-63, 3-[2-(1,1-Dioxido-2,3-dihydro-1,4-benzothiazepin-4(5H)-yl)-6-methylquinolin-4-yl]-1,1-dimethylurea], the figure is 9.9 µM; as for `Cc1ccc2nc(N3Cc4ccccc4S(=O)(=O)C(C)C3)cc(NCC3(N)COC3)c2c1` (stereo not drawn) [Example 69-2, N-[(3-Aminooxetan-3-yl)methyl]-6-methyl-2-(2-methyl-1,1-dioxido-2,3-dihydro-1,4-benzothiazepin-4(5H)-yl)quinolin-4-amine], 0.007 µM; as for `Cc1ccc2nc(N3CCS(=O)(=O)c4ccccc4C3C)cc(NCC3(N)COC3)c2c1` (stereo not drawn) [Example 2-8, N-[(3-Aminooxetan-3-yl)methyl]-6-methyl-2-(5-methyl-1,1-dioxido-2,3-dihydro-1,4-benzothiazepin-4(5H)-yl)quinolin-4-amine], 0.055 µM.
